Earlier results on one substance are cited in US20260262633A1, “BORDEAUX MIXTURE/ORGANOSULFUR FUNGICIDE NANO-SUSPENSION DISPERSION” (priority 2023, published 2026).

basic copper sulfate: the solubility in water is 1.06 µg/mL.
